The values that follow are results of earlier work, collected in patent US20210147810A1, “SINGLE LUNG CELL-DERIVED ORGANOIDS” (Rutgers, The State University of New Jersey, priority 2017, published 2021).

Structures are written as SMILES.

The subject of this series is PTPRT-mutant NSCLC. To be noted: in vivo.

For the molecule `CC(=O)c1cc2c(o1)C(=O)c1ccccc1C2=O` [BBI608], the anti-tumor activity entry was “effective anti-tumor activity”.
